From patent US12116388B2, “Amylin receptor agonists” (Novo Nordisk A/S, priority 2022, dated 2024)
Starred links: 1 amine or outer side, 2 acyl side, 3 side chain; linkers in the order of their positions; H or OH if unused. Residues, ends and D or L forms follow the SMILES beside them. *: point of attachment. C20 diacid = O=C(O)CCCCCCCCCCCCCCCCCCC(=O)*; C18 diacid = O=C(O)CCCCCCCCCCCCCCCCC(=O)*; γGlu = O=C(O)[C@H](CCC(=O)[*:2])N[*:1]

Experiment: Oral pharmacokinetic profiles in Beagle dogs (SNAC tablets)
Format: in vivo
Conditions: oral tablet: 3 mg compound, 300 mg SNAC, 7.7 mg magnesium stearate; for half-life: male, dog, plasma, read-out: T½ (converted)
Method: To be able to evaluate oral exposure following tablet dosing, tablet compositions comprising the test substance and SNAC (sodium N-(8-(2-hydroxybenzoyl)amino)caprylate) were prepared by mixing test substance with roller compacted SNAC and magnesium stearate as, e.g., described in WO 2019/149880.
This assay was performed to measure the oral bioavailability of a compound. The assay determined the exposure of test compound following oral administration in Beagle dogs as described by relevant pharmacokinetic parameters and plasma concentration curves.
Preparation of tablets for oral administration: tablets containing test compound used for the assay described herein were immediate release SNAC-based tablets. The test compound was spray-dried as neutral sodium salt (pH 7-8). Dry granulation was carried out by roller compaction on a Gerteis MINI-PACTOR. Tablets containing 3 mg test compound, 300 mg sodium N-(8-(2-hydroxybenzoyl)amino)caprylate (SNAC) and 7.7 mg magnesium stearate were produced on at Kilian Style One using 7.2×12 mm punches.
Determination of the absorption following oral administration: eight (8) male Beagle dogs, 1 to 8 years of age and weighing approximately 10-15 kg at the start of the studies, were used. The dogs were group-housed in pens (12 hours light:12 hours dark), and fed individually and restrictedly once daily with Royal Canin Medium Adult dog (Royal Canin Products, China Branch, or Brogaarden A/S, Denmark). Exercise and group social were permitted daily, whenever possible. The dogs were used for repeated pharmacokinetic studies with a suitable wash-out period between successive dosing. An appropriate acclimatisation period was given prior to initiation of the first pharmacokinetic study. All handling, dosing and blood sampling of the animals were performed by trained and skilled staff. Before the studies the dogs were fasted overnight and from 0 to 4 h after dosing. Besides, the dogs were restricted to water 1 hour before dosing until 4 hours after dosing, but otherwise had ad libitum access to water during the whole period.
Tablets containing the test compound were administered in the following manner: 10 min prior to tablet administration the dogs were dosed subcutaneously with approximately 3.2 nmol/kg of glucagon. The tablets were placed in the back of the mouth of the dog to prevent chewing. The mouth was then closed, and 10 mL of tap water was given by a syringe to facilitate swallowing of the tablet. Blood was sampled at predefined time points for up till 288 hours after dosing to adequately cover the full plasma concentration-time absorption profile of the compound. For each blood sampling time point approximately 1.2 mL of whole blood was collected in a 1.5 mL EDTA coated tube, and the tube was gently turned to allowing mixing of the sample with the EDTA. Then, the blood samples were kept on ice until centrifugation (4 min, 4° C., 4000 rpm). Plasma was pipetted into Micronic tubes on dry ice and kept at −20° C. until analysis. Blood samples were taken as appropriate, for example from a venflon in the cephalic vein in the front leg for the first 2 hours and then with syringe from the jugular vein for the rest of the time points (the first few drops were allowed to drain from the venflon to avoid heparin saline from the venflon in the sample).
Bioanalysis was carried out as follows: plasma concentrations of test compound were assayed by plasma protein precipitation and analysed by liquid chromatography-mass spectrometry (LC-MS). Calibrators were prepared by spiking blank dog plasma with analytes to reach the final concentrations in the range typically from 0.5 to 200 nM. Calibrators, plasma blanks or study samples were prepared for LC-MS by protein precipitation by adding 3 volumes of ethanol followed by centrifugation at 4000 rpm at 4° C. for 1 h. The supernatant was diluted with 2 volumes of Milli-Q water containing 0.1% formic acid before injection on the LC-MS system. […]

Compound	half-life [h]	AUC/D [kg·h/L]	Cmax/D [kg/L]
CC[C@H](C)[C@H](NC(=O)[C@@H]1CCCN1C(=O)CNC(=O)[C@H](Cc1ccccc1)NC(=O)[C@H](Cc1c[nH]cn1)NC(=O)[C@H](Cc1c[nH]cn1)NC(=O)[C@H](CC(C)C)NC(=O)[C@H](Cc1ccccc1)NC(=O)[C@H](CCC(=O)O)NC(=O)[C@H](C)NC(=O)[C@H](CC(C)C)NC(=O)[C@H](CCCNC(=N)N)NC(=O)[C@H](CCC(N)=O)NC(=O)[C@@H](NC(=O)[C@H](CCC(N)=O)NC(=O)[C@H](C)NC(=O)[C@@H](NC(=O)[C@H](CO)NC(=O)[C@H](CC(C)C)NC(=O)[C@H](Cc1c[nH]cn1)NC(=O)[C@H](CO)NC(=O)[C@H](C)NC(=O)CC[C@H](NC(=O)CCCCCCCCCCCCCCCCCCC(=O)O)C(=O)O)[C@@H](C)O)[C@@H](C)O)C(=O)N[C@@H](CC(C)C)C(=O)N1CCC[C@H]1C(=O)N1CCC[C@H]1C(=O)N[C@H](C(=O)N[C@@H](CC(=O)O)C(=O)N[C@H](C(=O)NCC(=O)N[C@@H](CO)C(=O)N[C@@H](CCC(=O)O)C(=O)N[C@H](C(=O)N1CCC[C@H]1C(N)=O)[C@@H](C)O)C(C)C)[C@@H](C)O [Compound 4, N^1-[(4S)-4-carboxy-4-(19-carboxynonadecanoylamino)butanoyl]-[Ala1,Ser2,His3,Leu4,Ser5,Ala7,Gln8,Glu14,His17,Pro25,Pro28,Pro29,Asp31,Glu35,Pro37],des-(19-22)-human amylin] ({C20 diacid-γGlu}-ASHLSTAQTQRLAEFLHHFGPILPPTDVGSETP-NH2)	130	21.24	0.23
CC[C@H](C)[C@H](NC(=O)[C@H](C)NC(=O)CNC(=O)[C@H](Cc1ccccc1)NC(=O)[C@@H]1CCCN1C(=O)[C@H](CC(=O)O)NC(=O)[C@H](CO)NC(=O)[C@H](CO)NC(=O)[C@H](Cc1c[nH]cn1)NC(=O)[C@H](Cc1c[nH]cn1)NC(=O)[C@H](CC(C)C)NC(=O)[C@H](Cc1ccccc1)NC(=O)[C@H](CCC(=O)O)NC(=O)[C@H](C)NC(=O)[C@H](CC(C)C)NC(=O)[C@H](CCCNC(=N)N)NC(=O)[C@H](CCC(N)=O)NC(=O)[C@@H](NC(=O)[C@H](CCC(N)=O)NC(=O)[C@H](C)NC(=O)[C@@H](NC(=O)[C@H](CO)NC(=O)[C@H](CC(C)C)NC(=O)[C@H](Cc1c[nH]cn1)NC(=O)[C@H](CO)NC(=O)[C@H](C)NC(=O)CC[C@H](NC(=O)CCCCCCCCCCCCCCCCC(=O)O)C(=O)O)[C@@H](C)O)[C@@H](C)O)C(=O)N1CCC[C@H]1C(=O)N[C@@H](CO)C(=O)N[C@@H](CO)C(=O)N[C@H](C(=O)N[C@@H](CC(=O)O)C(=O)N[C@H](C(=O)NCC(=O)N1CCC[C@H]1C(=O)N[C@@H](CC(=O)O)C(=O)N[C@H](C(=O)N1CCC[C@H]1C(N)=O)[C@@H](C)O)C(C)C)[C@@H](C)O [Compound 8, N^1-[(4S)-4-carboxy-4-(17-carboxyheptadecanoylamino)butanoyl]-[Ala1,Ser2,His3,Leu4,Ser5,Ala7,Gln8,Glu14,His17,Asp21,Pro22,Pro27,Asp31,Pro34,Asp35,Pro37]-human amylin] ({C18 diacid-γGlu}-ASHLSTAQTQRLAEFLHHSSDPFGAIPSSTDVGPDTP-NH2)	121	17.52	0.24
CC[C@H](C)[C@H](NC(=O)[C@H](C)NC(=O)CNC(=O)[C@H](Cc1ccccc1)NC(=O)[C@@H]1CCCN1C(=O)[C@H](CC(=O)O)NC(=O)[C@H](CO)NC(=O)[C@H](CO)NC(=O)[C@H](Cc1c[nH]cn1)NC(=O)[C@H](Cc1c[nH]cn1)NC(=O)[C@H](CC(C)C)NC(=O)[C@H](Cc1ccccc1)NC(=O)[C@H](CCC(=O)O)NC(=O)[C@H](C)NC(=O)[C@H](CC(C)C)NC(=O)[C@H](CCCNC(=N)N)NC(=O)[C@H](CCC(N)=O)NC(=O)[C@@H](NC(=O)[C@H](CCC(N)=O)NC(=O)[C@H](C)NC(=O)[C@@H](NC(=O)[C@H](CO)NC(=O)[C@H](CC(C)C)NC(=O)[C@H](CO)NC(=O)CNC(=O)[C@H](C)NC(=O)CC[C@H](NC(=O)CCCCCCCCCCCCCCCCC(=O)O)C(=O)O)[C@@H](C)O)[C@@H](C)O)C(=O)N1CCC[C@H]1C(=O)N[C@@H](CO)C(=O)N[C@@H](CO)C(=O)N[C@H](C(=O)N[C@@H](CC(=O)O)C(=O)N[C@H](C(=O)NCC(=O)N1CCC[C@H]1C(=O)N[C@@H](CC(=O)O)C(=O)N[C@H](C(=O)N1CCC[C@H]1C(N)=O)[C@@H](C)O)C(C)C)[C@@H](C)O [Compound 10, N^1-[(4S)-4-carboxy-4-(17-carboxyheptadecanoylamino)butanoyl]-[Ala1,Gly2,Ser3,Leu4,Ser5,Ala7,Gln8,Glu14,His17,Asp21,Pro22,Pro27,Asp31,Pro34,Asp35,Pro37]-human amylin] ({C18 diacid-γGlu}-AGSLSTAQTQRLAEFLHHSSDPFGAIPSSTDVGPDTP-NH2)	131	27.73	0.34
CC[C@H](C)[C@H](NC(=O)[C@@H]1CCCN1C(=O)CNC(=O)[C@H](Cc1ccccc1)NC(=O)[C@H](CC(N)=O)NC(=O)[C@H](CC(=O)O)NC(=O)[C@H](CO)NC(=O)[C@H](CO)NC(=O)[C@H](Cc1c[nH]cn1)NC(=O)[C@H](Cc1c[nH]cn1)NC(=O)[C@H](CC(C)C)NC(=O)[C@H](Cc1ccccc1)NC(=O)[C@H](CCC(=O)O)NC(=O)[C@H](C)NC(=O)[C@H](CC(C)C)NC(=O)[C@H](CCCNC(=N)N)NC(=O)[C@H](C)NC(=O)[C@@H](NC(=O)[C@H](CCC(N)=O)NC(=O)[C@H](C)NC(=O)[C@@H](NC(=O)[C@H](CO)NC(=O)[C@H](CC(C)C)NC(=O)[C@H](Cc1c[nH]cn1)NC(=O)[C@H](CO)NC(=O)[C@H](C)NC(=O)CC[C@H](NC(=O)CCCCCCCCCCCCCCCCC(=O)O)C(=O)O)[C@@H](C)O)[C@@H](C)O)C(=O)N[C@@H](CC(C)C)C(=O)N1CCC[C@H]1C(=O)N1CCC[C@H]1C(=O)N[C@H](C(=O)N[C@@H](CC(=O)O)C(=O)N[C@H](C(=O)NCC(=O)N[C@@H](CO)C(=O)N[C@@H](CC(N)=O)C(=O)N[C@H](C(=O)N1CCC[C@H]1C(N)=O)[C@@H](C)O)C(C)C)[C@@H](C)O [Compound 14, N^1-[(4S)-4-carboxy-4-(17-carboxyheptadecanoylamino)butanoyl]-[Ala1,Ser2,His3,Leu4,Ser5,Ala7,Gln8,Ala10,Glu14,His17,Asp21,Pro25,Pro28,Pro29,Asp31,Pro37]-human amylin] ({C18 diacid-γGlu}-ASHLSTAQTARLAEFLHHSSDNFGPILPPTDVGSNTP-NH2)	113	20.76	0.34
